# Assay results: patent US11458152B2, “Use of agarobiose or agarooligosaccharide having anticariogenic activity” (Korea University Research and Business Foundation, priority 2016, dated 2022)
# Assays:
# Streptococcus mutans [1] = assay: Acid production of Streptococcus mutans under mixed carbon source condition, extracellular glucose and lactic acid by HPLC (Example 8); type: cell-based, Streptococcus mutans ATCC 25175
# Protocol: (§1) A strain used in the present experiment was Streptococcus mutans ATCC 25175. Streptococcus mutans ATCC 25175 was pre-cultured in a brain-heart infusion (BHI) medium for 8 hours, and was washed twice with a 2 mM potassium phosphate buffer, and then main-cultured in a minimal medium prepared with reference to a previously reported document (Fujiwara et al (1978) Arch Oral Biol. 23, 601-602) at 37° C. The minimal medium contains, in a 50 mM Tris-HCl buffer (pH 7.4), 2 g/L of L-glutamic acid, 0.2 g/L of cysteine hydrochloride, 0.9 g/L of L-leucine, 1 g/L of ammonium chloride, 3.5 g/L of potassium hydrogen phosphate, 1.5 g/L of potassium dihydrogen phosphate, 4.2 g/L of sodium hydrogen carbonate, 1.2 g/L of magnesium sulfate heptahydrate, 0.02 g/L of manganese chloride tetrahydrate, 0.02 g/L of iron sulfate heptahydrate, 0.6 g/L of sodium pyruvate, 1 mg/L of riboflavin, 0.5 mg/L of thiamine hydrochloride, 0.1 mg/L of biotin, 1 mg/L of nicotinic acid, 0.1 mg/L of p-aminobenzoic acid, 0.5 mg/L of calcium pantothenate, and 1 mg/L of pyridoxine hydrochloride.
# To confirm an effect of agarobiose, agarooligosaccharides, xylitol, or neoagarobiose on acid production of Streptococcus mutans, Streptococcus mutans were cultured, using the method of Example 5, in 200 μl of a minimal medium containing 10 g/L of glucose and 0 g/L, 2.5 g/L, 5 g/L, 10 g/L, or 20 g/L of agarobiose, agarooligosaccharides, or neoagarobiose, or 0 g/L, 5 g/L, 10 g/L, or 20 g/L of xylitol in a 96-well plate. After 14 hours, concentrations of extracellular glucose and produced lactic acid were measured by HPLC. A column used for HPLC analysis was Aminex HPX-87H. 0.01 N of sulfuric acid as a mobile phase was flowed at a rate of 0.5 mL/min and 65° C.
# Streptococcus mutans [2] = assay: Growth of Streptococcus mutans under single carbon source condition (Example 6); type: cell-based, Streptococcus mutans ATCC 25175; conditions: 10 g/L as single carbon source in minimal medium, cultured 14 hours
# Protocol: as §1, with “hydrochloride. To verify an effect of inhibiting the growth of Streptococcus mutans under a single carbon source condition, Streptococcus mutans were cultured in a minimal medium containing each of 10 g/L of agarobiose, agarooligosaccharides, glucose, xylitol, and neoagarobiose and a carbon source-free minimal medium. They were main-cultured using the method of Example 5 for 14 hours, and a degree of the cell growth was measured by measuring the absorbance of a culture solution at a wavelength of 600 nm every two hours.” for “hydrochloride.”
# Streptococcus mutans [3] = assay: Growth inhibition of Streptococcus mutans under mixed carbon source condition, absorbance at 600 nm (Example 7); type: cell-based, Streptococcus mutans ATCC 25175
# Protocol: as §1, with “hydrochloride. Streptococcus mutans was cultured, using the method of Example 5, in 200 μl of a minimal medium containing 10 g/L of glucose and agarobiose, agarooligosaccharides, xylitol, or neoagarobiose at various concentrations in a 96-well plate, and growth inhibitory effects thereof were observed by measuring absorbance at a wavelength of 600 nm over time. The treated concentrations of agarobiose, agarooligosaccharides, xylitol, and neoagarobiose were between 0 g/L and 20 g/L.” for “hydrochloride.”
# Streptococcus mutans [4] = conditions: literature (Trahan L et al); cited from earlier work
# [5] = 2.5 g/L in 10 g/L glucose, 14 hours
# [6] = 10 g/L in 10 g/L glucose, 14 hours
# [7] = 20 g/L in 10 g/L glucose, 14 hours
# [8] = mixed carbon source, 10 g/L glucose
structure (smiles),measurement,setting,value
OC[C@H]1O[C@@H](O[C@H]2[C@H]3OC[C@@H]2OC(O)[C@H]3O)[C@H](O)[C@@H](O)[C@H]1O (mixture of isomers) [agarobiose],concentration of consumed glucose,Streptococcus mutans [1]; [5],6.78 g/L
same,concentration of produced lactic acid,Streptococcus mutans [1]; [5],5.65 g/L
same,decrease of consumed glucose compared to 0 g/L,Streptococcus mutans [1]; [5],19%
same,decrease of produced lactic acid compared to 0 g/L,Streptococcus mutans [1]; [5],32%
same,degree of inhibition of acid production compared with 10 g/L of xylitol,Streptococcus mutans [1]; 5 g/L in 10 g/L glucose,greater
same,amount of consumed glucose,Streptococcus mutans [1]; [6],4.05 g/L
same,amount of produced lactic acid,Streptococcus mutans [1]; [6],3.25 g/L
same,decrease of consumed glucose compared to 0 g/L,Streptococcus mutans [1]; [6],51.5%
same,decrease of produced lactic acid compared to 0 g/L,Streptococcus mutans [1]; [6],60%
same,decrease of consumed glucose compared to 0 g/L,Streptococcus mutans [1]; [7],58.76%
same,decrease of produced lactic acid compared to 0 g/L,Streptococcus mutans [1]; [7],68%
same,growth of Streptococcus mutans,Streptococcus mutans [2],no growth
same,absorbance value after 14 hours of culture,Streptococcus mutans [3]; 2.5 g/L in 10 g/L glucose,0.55
same,degree of inhibition of growth compared with 10 g/L of xylitol,Streptococcus mutans [3]; 5 g/L in 10 g/L glucose,greater
same,effect on inhibiting the growth of Streptococcus mutans compared with xylitol,"Streptococcus mutans [3]; same concentration, 10 g/L glucose",greater
same,final absorbance value compared with xylitol,"Streptococcus mutans [3]; same concentration, after 14 hours of culture, 10 g/L glucose",lower
"OC[C@H]1OC(O)[C@H](O)[C@@H](O[C@@H]2O[C@H]3CO[C@@H]([C@@H]2O)[C@@H]3O)[C@H]1O (stereo partly shown) [neoagarobiose, reference compound]",inhibition of acid production of Streptococcus mutans,Streptococcus mutans [1]; [8],unable to inhibit
same,amount of consumed glucose compared to 0 g/L,Streptococcus mutans [1]; up to 20 g/L in 10 g/L glucose,did not exhibit significant differences
same,amount of produced lactic acid compared to 0 g/L,Streptococcus mutans [1]; up to 20 g/L in 10 g/L glucose,did not exhibit significant differences
same,growth of Streptococcus mutans,Streptococcus mutans [2],no growth
same,inhibition of the growth of Streptococcus mutans,Streptococcus mutans [3]; [8],unable to inhibit
same,final absorbance value compared to 0 g/L,Streptococcus mutans [3]; up to 20 g/L in 10 g/L glucose,did not exhibit significant differences
same,change in the growth of Streptococcus mutans,"Streptococcus mutans [3]; up to 20 g/L, minimal medium containing 10 g/L glucose",no significant change
"OC[C@@H](O)[C@H](O)[C@@H](O)CO [xylitol, reference compound]",decrease of produced lactic acid compared to 0 g/L,"Streptococcus mutans [1]; 5 g/L in 10 g/L glucose, 14 hours",30%
same,decrease of consumed glucose compared to 0 g/L,Streptococcus mutans [1]; [6],23.98%
same,decrease of produced lactic acid compared to 0 g/L,Streptococcus mutans [1]; [6],35%
same,decrease of consumed glucose compared to 0 g/L,Streptococcus mutans [1]; [7],36.41%
same,decrease of produced lactic acid compared to 0 g/L,Streptococcus mutans [1]; [7],35%
same,growth of Streptococcus mutans,Streptococcus mutans [2],no growth
same,absorbance value at 600 nm after culturing for 14 hours,Streptococcus mutans [3]; 20 g/L in 10 g/L glucose,0.595
same,concentration needed to inhibit the growth of Streptococcus mutans,Streptococcus mutans [4],≥ 10 g/L
